Active and inactive are the calls of the source. The rule behind the calls is not given here. *1 amine or outer side, *2 acyl side, *3 side chain or, on linkers, in order; H or OH if unused. Where a SMILES comes first, the peptide text is derived from it. Bridges are numbered along the chain shown (N, C = ends). Roman numbers before positions name the chains, in order. [ ]: non-standard residue; d: D form. Actinocin(9to1) = Cc1c2oc3c(C)ccc(C(=O)[*:1])c3nc-2c(C(=O)[*:2])c(N)c1=O; NMeV = CN[C@H](C(=O)O)C(C)C; Sar = CNCC(=O)O
System: VEGF-stimulated ADSC/ECFC co-culture, nuclear area imaging
Assay: nuclear area loss in endothelial-stromal co-culture, dose response, cell-based, VEGF stimulation, IC50 (AID 1117324)

| SMILES | IC50 |
| --- | --- |
| C1CN(P2(N3CC3)=NP(N3CC3)(N3CC3)=NP(N3CC3)(N3CC3)=N2)CCO1 (stereo not given) | > 10 µM (inactive) |
| CCC(C)n1ncn(-c2ccc(N3CCN(c4ccc(OC[C@H]5CO[C@](Cn6cncn6)(c6ccc(Cl)cc6Cl)O5)cc4)CC3)cc2)c1=O (stereo not given in full) | > 10 µM (inactive) |
| Clc1ccccc1C(c1ccccc1)(c1ccccc1)n1ccnc1 | > 10 µM (inactive) |
| C[S+](CC[C@H](N)C(=O)O)C[C@H]1O[C@@H](n2cnc3c(N)ncnc32)[C@H](O)[C@H]1O (stereo not given in full) | > 10 µM (inactive) |
| Clc1ccc(CO/N=C(\Cn2ccnc2)c2ccc(Cl)cc2Cl)c(Cl)c1 | 8.85 µM (inactive) |
| CCCCCCCCCCCC(=O)[O][Sn]([CH2]CCC)([CH2]CCC)[O]C(=O)CCCCCCCCCCC | > 10 µM (inactive) |
| O=[N+]([O-])c1cccc(S(=O)(=O)NCCNS(=O)(=O)c2cccc([N+](=O)[O-])c2)c1 | > 10 µM (inactive) |
| O=c1oc2c(O)c(O)cc3c(=O)oc4c(O)c(O)cc1c4c23 | > 10 µM (inactive) |
| CC(C)=CCC/C(C)=C/CC/C(C)=C/C(=O)OCC(=O)[C@@]1(O)CC[C@H]2[C@@H]3CCC4=CC(=O)C=C[C@]4(C)[C@H]3[C@@H](O)C[C@@]21C | > 10 µM (inactive) |
| O=C(O)CCC(=O)OC[C@@H](NC(=O)C(Cl)Cl)[C@H](O)c1ccc([N+](=O)[O-])cc1 | > 10 µM (inactive) |
| O=[N+]([O-])C(Br)(CO)CO | > 10 µM (inactive) |
| CC1=C(C(=O)OC(C)C)C(c2cccc([N+](=O)[O-])c2)C(C(=O)OC2CN(C(c3ccccc3)c3ccccc3)C2)=C(N)N1 (stereo not given) | 7.39 µM (inactive) |
| Clc1ccc(C(Cn2ccnc2)OCc2ccsc2Cl)c(Cl)c1 (stereo not given) | 9.47 µM (inactive) |
| CCC1C(=O)OCC1Cc1cncn1C (stereo not given) | > 10 µM (inactive) |
| Oc1ccc(O)cc1 | > 10 µM (inactive) |
| Cc1c(C(=O)NN2CCCCC2)nn(-c2ccc(Cl)cc2Cl)c1-c1ccc(Cl)cc1 | > 10 µM (inactive) |
| CCCSS/C(CCO)=C(\C)N(C=O)Cc1cnc(C)nc1N | > 10 µM (inactive) |
| Cc1ccccc1C(=O)Nc1ccc(C(=O)N2CCCC(N(C)C)c3ccccc32)cc1 (stereo not given) | > 10 µM (inactive) |
| Cc1c2oc3c(C)ccc(C(=O)N[C@@H]4C(=O)N[C@H](C(C)C)C(=O)N5CCC[C@H]5C(=O)N(C)CC(=O)N(C)[C@@H](C(C)C)C(=O)O[C@@H]4C)c3nc-2c(C(=O)N[C@@H]2C(=O)N[C@H](C(C)C)C(=O)N3CCC[C@H]3C(=O)N(C)CC(=O)N(C)[C@@H](C(C)C)C(=O)O[C@@H]2C)c(N)c1=O (I: T[dV]P[Sar][NMeV] / II: T[dV]P[Sar][NMeV]; ester I:1-I:C, II:1-II:C; linker I:N-II:N via Actinocin(9to1)) | 0.0403 µM |
| O[C@@H](CNC[C@H](O)[C@H]1CCc2cc(F)ccc2O1)[C@@H]1CCc2cc(F)ccc2O1 | > 10 µM (inactive) |
